Source: ChEMBL document CHEMBL1201862, “PubChem BioAssay data set” (2004)
Values belong to the molecule of their own block, whether it stands above or below them. Calls of active or inactive are those of the source.

Experiments:
Caspase-6 = Caspase-6 (Homo sapiens, UniProt P55212); test: inhibition of CASP6 peptide cleavage – biochemical, VEID-R110 fluorescence, cherry-pick, dose response (AID 720632)
Paired box protein Pax-8 = Paired box protein Pax-8 (Homo sapiens, UniProt Q06710); test: PAX8 transcriptional activity inhibition in RMG-I – RMG-I cells, luciferase, cherry-pick, dose response (AID 687027); type: functional, cell-based;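 note: luciferase reporter driven by Pax8 target thyroperoxidase promoter measured by SteadyGlo luminescence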
[1] = molecular target: NAD-dependent protein deacylase sirtuin-5, mitochondrial (Homo sapiens, UniProt Q9NXA8); test: blockers of sirtuin-5 peptide desuccinylation – biochemical, fluorescence imaging, cherry-pick, set 6, dose response (AID 720597)
[2] = viability loss in HepG2 liver cells – cell-based, ATP luminescence, cherry-pick, set 6, cytotoxicity control, dose response (AID 1053125); type: functional
cells [3] = conditions: A549
cells [4] = conditions: HEK293
Large T antigen = Large T antigen (Simian virus 40, UniProt P03070); type: functional, Betapolyomavirus macacae;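 note: Confirmatory-stage PubChem screen for compounds that inhibit SV40 T antigen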
[5] = molecular target: Delta-type opioid receptor (Homo sapiens, UniProt P41143); test: Late-stage results from the probe development effort to identify antagonists of OPRK1: fluorescence-based cell-based dose response OPRD1 counterscreen.; type: functional
Mu-type opioid receptor = Mu-type opioid receptor (Homo sapiens, UniProt P35372); test: Late-stage results from the probe development effort to identify antagonists of OPRK1: luminescence-based cell-based dose response OPRM1 counterscreen.; type: functional
[6] = molecular target: Potassium channel subfamily K member 3 (Homo sapiens, UniProt O14649); test: inhibition of human KCNK3 channel flux – CHO cells, FluxOR thallium flux, SAR follow-up (AID 652212); type: functional
[7] = BioA aminotransferase inhibition, coupled fluorescent readout – biochemical, coupled fluorescence displacement, 20-point, dry powder, dose response (AID 743357); type: functional
[8] = PAX5 cellular inhibition readout – cell-based, plate reader, dry powder samples, selectivity assay for PAX8 inhibitor project, dose response (AID 743047); type: functional;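 note: HEK293 cells carrying a Pax5 driven CD19 promoter luciferase reporter; potency of inhibitors that lower reporter luminescence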
[9] = inhibitors acting on PAX2 in cells – cell-based, plate reader, dry powder samples, selectivity assay for PAX8 inhibitor project, dose response (AID 743048); type: functional;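 note: HEK293 cells carrying a WT1 promoter luciferase reporter driven by expressed Pax2; potency is for inhibition of Pax2 driven reporter signal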
[10] = toxicity toward immortalized ovarian surface epithelium – cell-based, plate reader, dry powder samples, cytotoxicity control for PAX8 inhibitor project, dose response (AID 743045); type: functional
[11] = IGROV1 cell killing – plate reader, dry powder samples, PAX8 inhibitor project, dose response (AID 743043); type: functional, cell-based; conditions: IGROV-1
[12] = COV362 cell viability loss – plate reader, dry powder, SA12, cytotoxicity control for PAX8 inhibitor project, dose response (AID 743144); type: functional, cell-based
[13] = COV434 cell viability loss – plate reader, dry powder, SA7, cytotoxicity control for PAX8 inhibitor project, dose response (AID 743145); type: functional, cell-based
[14] = PAX8-dependent cell viability loss – plate reader, dry powder, dose response (AID 743049); type: functional, cell-based
[15] = OVCAR4 cell viability loss – plate reader, dry powder, SA11, cytotoxicity control for PAX8 inhibitor project, dose response (AID 743150); type: functional, cell-based; conditions: OVCAR-4
[16] = OVCAR8 cell viability loss – plate reader, dry powder samples, PAX8 project, dose response (AID 743197); type: functional, cell-based; conditions: OVCAR-8
[17] = OV-90 cell viability loss – plate reader, dry powder, SA8, PAX8 inhibitor project, dose response (AID 743149); type: functional, cell-based

Chain of Paired box protein Pax-8 (Q06710 whole entry): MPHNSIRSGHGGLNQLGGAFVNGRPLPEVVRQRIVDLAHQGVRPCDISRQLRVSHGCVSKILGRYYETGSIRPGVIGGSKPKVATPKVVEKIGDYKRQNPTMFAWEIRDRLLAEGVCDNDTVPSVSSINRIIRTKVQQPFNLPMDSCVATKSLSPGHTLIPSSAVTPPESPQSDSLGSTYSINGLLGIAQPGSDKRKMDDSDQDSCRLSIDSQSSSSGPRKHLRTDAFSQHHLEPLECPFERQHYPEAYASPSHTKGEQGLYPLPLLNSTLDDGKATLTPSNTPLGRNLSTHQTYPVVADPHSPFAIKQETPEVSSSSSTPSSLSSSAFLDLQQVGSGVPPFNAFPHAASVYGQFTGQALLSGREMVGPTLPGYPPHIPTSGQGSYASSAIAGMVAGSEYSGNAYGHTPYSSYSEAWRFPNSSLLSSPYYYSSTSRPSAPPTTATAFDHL
Chain of NAD-dependent protein deacylase sirtuin-5, mitochondrial (Q9NXA8 whole entry): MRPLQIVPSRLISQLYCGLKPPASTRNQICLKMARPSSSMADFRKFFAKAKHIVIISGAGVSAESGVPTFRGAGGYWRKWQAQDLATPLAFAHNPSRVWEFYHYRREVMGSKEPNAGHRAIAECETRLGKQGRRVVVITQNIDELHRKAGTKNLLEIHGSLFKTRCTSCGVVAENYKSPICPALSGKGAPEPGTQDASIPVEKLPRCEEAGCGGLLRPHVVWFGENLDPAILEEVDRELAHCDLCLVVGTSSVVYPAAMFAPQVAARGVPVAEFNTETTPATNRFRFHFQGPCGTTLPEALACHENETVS
Chain of Potassium channel subfamily K member 3 (O14649 whole entry): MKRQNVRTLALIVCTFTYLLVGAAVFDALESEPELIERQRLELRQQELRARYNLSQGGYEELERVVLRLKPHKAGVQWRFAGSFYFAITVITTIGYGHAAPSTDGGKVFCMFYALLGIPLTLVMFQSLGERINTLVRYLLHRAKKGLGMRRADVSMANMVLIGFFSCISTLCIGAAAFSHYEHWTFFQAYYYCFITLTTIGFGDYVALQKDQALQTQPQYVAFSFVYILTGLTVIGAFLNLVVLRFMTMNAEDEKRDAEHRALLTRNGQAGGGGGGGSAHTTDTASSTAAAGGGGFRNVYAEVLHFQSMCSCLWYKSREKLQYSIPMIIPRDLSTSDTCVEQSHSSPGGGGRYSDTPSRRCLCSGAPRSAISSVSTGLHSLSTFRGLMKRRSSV
Chain of Large T antigen (P03070 whole entry): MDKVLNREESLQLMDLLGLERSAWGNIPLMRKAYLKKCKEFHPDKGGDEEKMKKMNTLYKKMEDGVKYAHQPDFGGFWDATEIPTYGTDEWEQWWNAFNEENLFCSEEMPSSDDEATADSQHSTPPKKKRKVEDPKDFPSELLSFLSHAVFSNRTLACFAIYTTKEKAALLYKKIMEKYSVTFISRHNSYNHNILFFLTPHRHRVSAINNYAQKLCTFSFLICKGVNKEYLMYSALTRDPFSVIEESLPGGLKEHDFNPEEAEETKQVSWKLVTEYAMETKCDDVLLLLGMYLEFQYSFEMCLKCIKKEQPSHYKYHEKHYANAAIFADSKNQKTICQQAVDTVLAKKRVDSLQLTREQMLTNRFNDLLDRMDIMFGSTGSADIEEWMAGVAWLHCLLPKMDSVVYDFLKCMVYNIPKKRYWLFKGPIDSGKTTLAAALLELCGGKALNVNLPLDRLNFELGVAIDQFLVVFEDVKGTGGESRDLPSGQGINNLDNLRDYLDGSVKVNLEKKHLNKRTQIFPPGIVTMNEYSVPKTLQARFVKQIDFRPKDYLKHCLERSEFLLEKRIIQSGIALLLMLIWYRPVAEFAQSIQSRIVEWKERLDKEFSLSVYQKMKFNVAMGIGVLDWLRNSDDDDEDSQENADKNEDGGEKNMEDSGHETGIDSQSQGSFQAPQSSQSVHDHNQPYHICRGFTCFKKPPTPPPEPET
Chain of Mu-type opioid receptor (P35372 whole entry): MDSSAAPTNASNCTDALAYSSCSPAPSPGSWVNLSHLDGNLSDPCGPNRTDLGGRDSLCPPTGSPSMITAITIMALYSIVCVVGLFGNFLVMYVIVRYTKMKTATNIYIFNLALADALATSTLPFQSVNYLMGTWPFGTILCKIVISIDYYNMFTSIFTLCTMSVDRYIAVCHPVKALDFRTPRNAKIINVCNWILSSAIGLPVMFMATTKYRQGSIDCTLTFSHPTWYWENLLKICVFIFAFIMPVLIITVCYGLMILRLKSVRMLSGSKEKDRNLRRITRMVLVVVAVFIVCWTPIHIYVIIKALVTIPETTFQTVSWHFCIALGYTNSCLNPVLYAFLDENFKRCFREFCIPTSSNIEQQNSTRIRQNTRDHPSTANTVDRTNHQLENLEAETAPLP
Chain of Delta-type opioid receptor (P41143 whole entry): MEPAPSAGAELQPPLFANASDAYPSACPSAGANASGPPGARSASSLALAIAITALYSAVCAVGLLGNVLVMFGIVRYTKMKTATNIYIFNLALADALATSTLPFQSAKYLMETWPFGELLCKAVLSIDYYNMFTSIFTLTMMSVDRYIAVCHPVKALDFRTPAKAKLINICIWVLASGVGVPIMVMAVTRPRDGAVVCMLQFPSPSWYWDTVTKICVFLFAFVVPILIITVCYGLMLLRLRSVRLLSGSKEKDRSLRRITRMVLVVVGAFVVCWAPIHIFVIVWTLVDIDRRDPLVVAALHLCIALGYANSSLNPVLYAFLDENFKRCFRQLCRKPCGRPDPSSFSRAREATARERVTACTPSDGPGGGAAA
Chain of Caspase-6 (P55212 24-179 limits assumed): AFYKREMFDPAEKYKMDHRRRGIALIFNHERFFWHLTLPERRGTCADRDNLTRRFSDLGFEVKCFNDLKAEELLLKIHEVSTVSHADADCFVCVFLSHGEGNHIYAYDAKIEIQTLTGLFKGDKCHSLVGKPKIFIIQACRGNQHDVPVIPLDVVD
Chain of Caspase-6 (P55212 194-293 limits assumed): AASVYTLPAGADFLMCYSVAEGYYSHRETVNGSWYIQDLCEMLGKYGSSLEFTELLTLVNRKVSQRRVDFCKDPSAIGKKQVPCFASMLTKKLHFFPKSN

SMILES: O=C(c1ccccc1)N1CCN(c2ccc(NCc3ccc4c(c3)OCO4)cc2)CC1
AC50 [2]: > 52 µM (inactive)
AC50 (cells [3]): > 52 µM (inactive)
AC50 (cells [4]): 20.2 µM (active)
IC50 (Large T antigen): > 100 µM (active)

SMILES: CN1c2ccc(-c3cccc(F)c3)cc2[C@H]2[C@H](CCN2C(=O)CCCCCCC(=O)O)[C@H]1CO
AC50 [7]: 16.7 µM (active)

SMILES: CCCNC(=O)N(C)C[C@H]1N[C@@H](CO)[C@@H]1c1ccc(C2=CCCCC2)cc1
AC50 [8]: > 16 µM (inactive)
AC50 (Paired box protein Pax-8): 3.47 µM (active)
AC50 [9]: 8.91 µM (active)
AC50 [10]: 25.9 µM (active)
AC50 [11]: 16.3 µM (active)
AC50 [12]: 10.7 µM (active)
AC50 [13]: 18.2 µM (active)
AC50 [14]: 10.1 µM (active)
AC50 [15]: 6.07 µM (active)
AC50 [16]: 14.4 µM (active)
AC50 [17]: 14.5 µM (active)

Continued, values first:

AC50 (Caspase-6): 28.8 µM (active)
SMILES: CCO/C(O)=C1/C(C)=Nc2ccccc2N=C1NS(=O)(=O)c1cc(C(=O)O)ccc1Cl

AC50 (Paired box protein Pax-8): 7.27 µM (active)
AC50 [1]: > 30 µM (inactive)
SMILES: Cc1ccc(S(=O)(=O)N(C)C[C@@H]2OCCCC[C@H](C)Oc3ccc(NS(=O)(=O)c4ccc(Cl)cc4)cc3C(=O)N([C@H](C)CO)C[C@H]2C)cc1

IC50 [5]: 7 µM (active)
IC50 (Mu-type opioid receptor): 4 µM (active)
SMILES: COC(=O)c1cc(Br)cnc1N1CCC(NC2CCCC2)CC1

IC50 [6]: 0.129 µM (active)
SMILES: CCOc1ccccc1NC(=O)c1cccc(NC(=O)C2CCCO2)c1 (configuration not stated)
